# Where two headings read alike, the source gives them in different places.
# Legend:
# human GPCRs = target: T1, human GPCRs (Homo sapiens, UniProt Q96P68); test: Screen of 301 human GPCRs in transfected HEK293 cells (aequorin, Gα16 coexpression); assay type: cell-based; details: 301 GPCRs, ligand final 0.625 mM; result for OXGR1
# T1 construct: expressed in transfected cells; host or cells: HEK293
# Description: In our search for the function and mechanism of secreted ITA, we noted the signaling of the GPCR proteins SUCNR1/GPR91 and OXGR1/GPR99, which sense the TCA metabolites succinate and α-KG, which are structurally similar to ITA ([27]). To test the hypothesis that ITA may similarly signal through a GPCR, we performed a screening of human GPCRs in transfected HEK293 cells and measured GPCR-dependent calcium mobilization (Figure 1E and Supplemental Figure 1; supplemental material available online with this article; https://doi.org/10.1172/JCI160463DS1). In order to allow more GPCRs to couple with the calcium pathway, we optimized the screening system by inducing coexpression of the promiscuous Gq family α subunit Gα16 ([34]). We examined 301 GPCRs that cover more than 70% of the nonolfactory GPCRs encoded by the human genome ([35]).
# For the aequorin assay, HEK293 cells were transfected with aequorin plasmids (Addgene no. 78734), Gα16 plasmid, and GPCR plasmids. Thirty-six hours after transfection, cells were maintained in serum-free medium for 12 hours and then loaded with 5 μM coelenterazine for 3 hours. […] Ligands (100 μL, diluted to 1.25 mM in HBSS buffer, with a final concentration of 0.625 mM) were injected into plates, and luminance was recorded for 30 seconds using the BioTek Synergy H1 plate reader.
# [1] = test system: primary mouse respiratory epithelial cells (ALI culture); test: Bead movement in ALI culture of primary mouse respiratory epithelial cells; assay type: cell-based; details: 500 μM ITA, Oxgr1+/+ vs Oxgr1–/–
# Method: . When they reached full confluence, the cells were differentiated by exposure to air and cultured in a serum-free medium for 20 days. ALI culturing of primary human bronchial epithelium was performed following the manufacturer’s manual ([…] Technologies). Briefly, cells were maintained in PneumaCult-Ex Plus medium on a Transwell insert. Medium on the lateral side was switched to PneumaCult-ALI medium. The apical side of the Transwell membrane was then carefully washed with prewarmed Dulbecco’s PBS (DPBS). Cells were differentiated by exposure to air for 3 weeks. The medium was changed every 2 days.
# For the measurement of bead movement in ALI culture, the apical side of the ALI culture inserts was washed with PBS 5 times to fully remove mucus. The inserts were transferred to HBSS buffer supplemented with 30 mM HEPES and the indicated ligand, and 20 μL bath buffer containing red fluorescent beads was added to the apical side. After 15 minutes of equilibration, bead movement was monitored with the BioTek Cytation 5 cell imaging system.
# [2] = test system: primary human bronchial epithelial cells; test: Calcium imaging (Fluo-4AM) of primary human bronchial epithelial cells; assay type: cell-based; details: 0.5 mM ITA
# Method: (§1) For calcium imaging of human primary bronchial epithelial cells, cells were infected with 2 CRISPR lentiviruses targeting OXGR1 and cultured for 2 days before calcium imaging. For calcium imaging of primary mouse cells, freshly isolated mouse tracheas were cut into rings, placed onto collagen-coated dishes, and cultured in DMEM supplemented with 10% FBS. Cells were loaded with 5 μM Fluo-4AM for 30 minutes in HBSS buffer, washed twice, and incubated for another 15 minutes for fully deesterification of Fluo-4AM. Cells loaded with Fluo-4AM were monitored with the BioTek Cytation 5 Cell imaging system every 300 ms for a total of 1.5 minutes after ligand administration. Fluorescence was quantified with ImageJ software (NIH).
# [3] = test system: primary respiratory epithelial cells from Oxgr1+/+ and Oxgr1–/– mice; test: Calcium imaging (Fluo-4AM) of primary mouse trachea epithelial cells; assay type: cell-based; details: 670 μM ITA or 100 μM ATP
# Method: as §1
# [4] = test system: mucin 5b and β-defensin 1; test: ELISA of mucin 5b and β-defensin 1 in BAL of P. aeruginosa infected mice; assay type: in vivo, mouse; details: ITA intranasal supplementation, P. aeruginosa infection
# Description: Mucins and antimicrobial polypeptides are essential immune defense components secreted by the respiratory tract ([41], [42]). To test the hypothesis that ITA/OXGR1 signaling may alter the concentration of mucins and antimicrobial polypeptides, we performed an ELISA to quantify the concentration of mucin 5b and β-defensin 1 in the mouse models of P. aeruginosa infection. […] It should be noted that Oxgr1 activation by ITA can simultaneously facilitate mucus secretion and mucus transport (Figure 4). These 2 “opposite” effects of ITA/OXGR1 on mucus may explain the observation of a lack of significant change in mucin 5b and β-defensin 1 in the airway’s surface liquid.
# [5] = test system: human OXGR1 orthosteric site mutants; test: Aequorin assay in HEK293 cells expressing mutant human OXGR1; assay type: cell-based; details: effect of mutation on ligand-stimulated calcium response
# Method: (§2) Thirty-six hours after transfection, cells were maintained in serum-free medium for 12 hours and then loaded with 5 μM coelenterazine for 3 hours. Cells were trypsinized and resuspended at a density of 5 × 10^5 cells/mL in HBSS supplemented with 10 mM HEPES and 0.5% BSA. Cell suspensions of 100 μL were aliquoted into 96-well plates.
# human OXGR1 = human OXGR1 (Homo sapiens, UniProt Q96P68); test: Aequorin assay (calcium mobilization) in HEK293 cells overexpressing human OXGR1; assay type: cell-based; details: for EC50: read-out: EC50
# Method: as §2
# [6] = ITA concentration in BAL after intranasal supplementation (LC-MS); assay type: in vivo; details: mouse, bronchoalveolar lavage fluid (BAL), other: intranasal, 20 µL of saline containing 1 mM ITA; 0.5 hours after intranasal ITA supplementation
# Method: The concentrations of urea in plasma and BAL were determined using a urea assay kit (Solarbio). For ITA determination, samples were extracted by 80% (vol/vol) chilled (–80°C) methanol and analyzed with an ultra-high-performance liquid chromatograph (Acquity UPLC I-Class, Waters) coupled to a triple quadrupole mass spectrometer (Xevo TQ-XS, Waters). For α-KG determination, samples were lyophilized and derived by methoxyamine (MilliporeSigma) and N-methyl-N-[tert-butyldimethylsilyl] trifluoroacetamide (MilliporeSigma) in pyridine (MilliporeSigma). The derivatized sample was injected into an Agilent 7890A-5975C GC-MS system with an HP-5MS column.
# Supplementary Figure 8. ITA level is positively correlated with Mucin 5b or β-defensin 1 concentration in BAL from mice after P. aeruginosa infection
# A. ITA concentration in BAL was determined by LC-MS after intranasal delivery of 20μL saline containing PAO1 and 1mM ITA (n=3-4).B-C. Comparison of Mucin 5b (B) and β-defensin1 (C) concentration in BAL of P. aeruginosainfected mice with indicated genotypes (n=4-10). Significance is determined by paired t-test. n.s., no significance. D-E. Correlation analysis of ITA concentration and Mucin 5b (D) or β-defensin1 concentration (E) in BAL ofP. aeruginosainfected WT mice. […]
compound,measurement,setting,value
"C=C(CC(=O)O)C(=O)O [ITA, itaconate]",calcium mobilization in GPCR screen,human GPCRs,the only receptor that showed robust and reproducible calcium mobilization
same,movement of beads,[1],could accelerate the movement of beads in an Oxgr1-dependent manner
same,calcium mobilization,[2]; control cells,robust calcium mobilization
same,calcium mobilization after depletion of OXGR1,[2]; sgOXGR1,abolished by depletion of OXGR1
same,"calcium mobilization, Oxgr1+/+ cells",[3],rapid calcium mobilization
same,level of mucin 5b in BAL,[4],Neither ITA intranasal supplementation nor Irg1 or Oxgr1 KO altered the levels
same,level of β-defensin 1 in BAL,[4],Neither ITA intranasal supplementation nor Irg1 or Oxgr1 KO altered the levels
same,"calcium response, mutants C106A, R110A, H258A, R261A, I265A",[5],completely abolished
same,"calcium response, mutants H114A, Y118F, I121A, I285A, R288A",[5],dramatically impaired
same,calcium response (agonist effect),"human OXGR1; HEK293 cells overexpressing human OXGR1, aequorin",stimulated the calcium response in a dose-dependent manner
same,EC50,"human OXGR1; OXGR1, as stated in abstract",~300 µM
same,EC50,"human OXGR1; aequorin assay, hOXGR1 in HEK293 cells",310 ± 45.2 µM
same,EC50,"human OXGR1; human OXGR1, text summary of Figure 1F and Supplemental Figure 2 (aequorin and Fluo-4)",200 to 300 µM
same,concentration at 0.5 h,[6],200 to 300 nM
